Source: ChEMBL document CHEMBL5579851, “Synthesis and antifungal evaluation of novel triazole derivatives bearing a pyrazole-methoxyl moiety” (Eur J Med Chem, 2024)
≈ marks a conversion by molar mass, not a printed value.

Assays:
[1] = test system: Saccharomyces cerevisiae; assay: Antifungal activity against recombinant Saccharomyces cerevisiae Y2513 overexpressing ScErg11 Y140H mutant assessed as inhibition of fungal growth incubated for 48 hrs by CLSI based broth microdilution assay; format: functional
[2] = test system: Saccharomyces cerevisiae; assay: Antifungal activity against recombinant Saccharomyces cerevisiae Y2711 overexpressing CnErg11 assessed as inhibition of fungal growth incubated for 48 hrs by CLSI based broth microdilution assay; format: functional
[3] = test system: Saccharomyces cerevisiae; assay: Antifungal activity against recombinant Saccharomyces cerevisiae Y2459 overexpressing CaErg11/CaCpr assessed as inhibition of fungal growth incubated for 48 hrs by CLSI based broth microdilution assay; format: functional
[4] = test system: Saccharomyces cerevisiae; assay: Antifungal activity against recombinant Saccharomyces cerevisiae Y2721 overexpressing CpErg11/CpCpr assessed as inhibition of fungal growth incubated for 48 hrs by CLSI based broth microdilution assay; format: functional
[5] = test system: Saccharomyces cerevisiae; assay: Antifungal activity against recombinant Saccharomyces cerevisiae Y2462 overexpressing ScErg11/ScNcp1 assessed as inhibition of fungal growth incubated for 48 hrs by CLSI based broth microdilution assay; format: functional
[6] = test system: Saccharomyces cerevisiae; assay: Antifungal activity against recombinant Saccharomyces cerevisiae Y2766 overexpressing CauCdr1 assessed as inhibition of fungal growth incubated for 48 hrs by CLSI based broth microdilution assay; format: functional
[7] = test system: Saccharomyces cerevisiae; assay: Antifungal activity against recombinant Saccharomyces cerevisiae Y525 overexpressing CaMdr1 assessed as inhibition of fungal growth incubated for 48 hrs by CLSI based broth microdilution assay; format: functional
[8] = test system: Saccharomyces cerevisiae; assay: Antifungal activity against recombinant Saccharomyces cerevisiae Y2411 overexpressing ScErg11 assessed as inhibition of fungal growth incubated for 48 hrs by CLSI based broth microdilution assay; format: functional
[9] = test system: Saccharomyces cerevisiae; assay: Antifungal activity against recombinant Saccharomyces cerevisiae Y2301 overexpressing ScErg11 Y140F mutant assessed as inhibition of fungal growth incubated for 48 hrs by CLSI based broth microdilution assay; format: functional
[10] = test system: Saccharomyces cerevisiae; assay: Antifungal activity against recombinant Saccharomyces cerevisiae Y2768 overexpressing CauErg11 T132F mutant assessed as inhibition of fungal growth incubated for 48 hrs by CLSI based broth microdilution assay; format: functional
[11] = test system: Saccharomyces cerevisiae; assay: Antifungal activity against recombinant Saccharomyces cerevisiae Y2767 overexpressing CauErg11 assessed as inhibition of fungal growth incubated for 48 hrs by CLSI based broth microdilution assay; format: functional
[12] = test system: Saccharomyces cerevisiae; assay: Antifungal activity against recombinant Saccharomyces cerevisiae Y2716 overexpressing CpErg11 Y132F mutant/ CpCpr assessed as inhibition of fungal growth incubated for 48 hrs by CLSI based broth microdilution assay; format: functional
[13] = test system: Saccharomyces cerevisiae; assay: Antifungal activity against recombinant Saccharomyces cerevisiae Y570 overexpressing CaCdr1 assessed as inhibition of fungal growth incubated for 48 hrs by CLSI based broth microdilution assay; format: functional
[14] = test system: Saccharomyces cerevisiae; assay: Antifungal activity against recombinant Saccharomyces cerevisiae Y2765 overexpressing CauMdr1 assessed as inhibition of fungal growth incubated for 48 hrs by CLSI based broth microdilution assay; format: functional
[15] = test system: Saccharomyces cerevisiae; assay: Antifungal activity against recombinant Saccharomyces cerevisiae Y2300 overexpressing ScErg11 assessed as inhibition of fungal growth incubated for 48 hrs by CLSI based broth microdilution assay; format: functional
[16] = test system: Saccharomyces cerevisiae; assay: Antifungal activity against recombinant Saccharomyces cerevisiae Y2769 overexpressing CauErg11 K143R mutant assessed as inhibition of fungal growth incubated for 48 hrs by CLSI based broth microdilution assay; format: functional
[17] = test system: Saccharomyces cerevisiae; assay: Antifungal activity against recombinant Saccharomyces cerevisiae Y2374 overexpressing CgErg11 assessed as inhibition of fungal growth incubated for 48 hrs by CLSI based broth microdilution assay; format: functional
[18] = Cytotoxicity against HUVEC cells assessed as cell viability at 128 ug/ml incubated for 24 hrs by CCK-8 assay relative to control; format: toxicity, cell-based; conditions: human, at 128 µg/mL, read-out: Activity
[19] = test system: [Candida] auris; assay: Antifungal activity against fluconazole-resistant Candida auris 918 assessed as inhibition of fungal growth incubated for 48 hrs by CLSI based broth microdilution assay; format: functional; conditions: Candidozyma auris
[20] = test system: Candida tropicalis; assay: Potency index, ratio of ravuconazole MIC to test compound MIC for antifungal activity against Candida tropicalis 8915 assessed as inhibition of fungal growth incubated for 48 hrs by CLSI based broth microdilution assay; format: functional
[21] = test system: Candida albicans; assay: Antifungal activity against Candida albicans 10231 assessed as inhibition of fungal growth incubated for 48 hrs by CLSI based broth microdilution assay; format: functional
[22] = test system: Candida parapsilosis; assay: Antifungal activity against Candida parapsilosis 22019 assessed as inhibition of fungal growth incubated for 48 hrs by CLSI based broth microdilution assay; format: functional; conditions: Lodderomyces parapsilosis
[23] = test system: [Candida] auris; assay: Antifungal activity against fluconazole-resistant Candida auris 891 assessed as inhibition of fungal growth incubated for 48 hrs by CLSI based broth microdilution assay; format: functional; conditions: Candidozyma auris
[24] = test system: Candida albicans; assay: Antifungal activity against fluconazole-resistant Candida albicans 901 assessed as inhibition of fungal growth incubated for 48 hrs by CLSI based broth microdilution assay; format: functional
[25] = test system: Candida albicans; assay: Antifungal activity against Candida albicans SC5314 assessed as inhibition of fungal growth incubated for 48 hrs by CLSI based broth microdilution assay; format: functional
[26] = test system: Cryptococcus neoformans; assay: Antifungal activity against Cryptococcus neoformans 32609 assessed as inhibition of fungal growth incubated for 72 hrs by CLSI based broth microdilution assay; format: functional
[27] = test system: Candida albicans; assay: Antifungal activity against fluconazole-resistant Candida albicans 904 assessed as inhibition of fungal growth incubated for 48 hrs by CLSI based broth microdilution assay; format: functional
[28] = test system: Candida tropicalis; assay: Antifungal activity against Candida tropicalis 8915 assessed as inhibition of fungal growth incubated for 48 hrs by CLSI based broth microdilution assay; format: functional
[29] = test system: Pichia kudriavzevii; assay: Antifungal activity against Candida krusei 4996 assessed as inhibition of fungal growth incubated for 48 hrs by CLSI based broth microdilution assay; format: functional
[30] = test system: [Candida] auris; assay: Antifungal activity against fluconazole-resistant Candida auris 919 assessed as inhibition of fungal growth incubated for 48 hrs by CLSI based broth microdilution assay; format: functional; conditions: Candidozyma auris
[31] = test system: Nakaseomyces glabratus; assay: Antifungal activity against Candida glabrata 537 assessed as inhibition of fungal growth incubated for 48 hrs by CLSI based broth microdilution assay; format: functional
[32] = test system: Candida tropicalis; assay: Potency index, ratio of fluconazole MIC to test compound MIC for antifungal activity against Candida tropicalis 8915 assessed as inhibition of fungal growth incubated for 48 hrs by CLSI based broth microdilution assay; format: functional

Structure (SMILES) | MIC [1] | MIC [2] | MIC [3] | MIC [4] | MIC [5] | MIC [6] | MIC [7] | MIC [8] | MIC [9] | MIC [10] | MIC [11] | MIC [12] | MIC [13] | MIC [14] | MIC [15] | MIC [16] | MIC [17] | MIC [19] | MIC [21] | MIC [22] | further results
C[C@@H](c1ncncc1F)[C@](O)(Cn1cncn1)c1ccc(F)cc1F [VORICONAZOLE] | 0.0313 µg/mL | 0.008 µg/mL | 0.016 µg/mL | 0.0313 µg/mL | 0.063 µg/mL | 2 µg/mL | 0.5 µg/mL | 0.008 µg/mL | 0.0313 µg/mL | 0.25 µg/mL | 0.0313 µg/mL | 0.25 µg/mL | 8 µg/mL | 1 µg/mL | 0.0313 µg/mL | 0.063 µg/mL | 0.0313 µg/mL |  |  |  | 
C[C@@H]1[C@H](O)[C@@H](C)/C=C/C=C/C=C/C=C/C=C/C=C/C=C/[C@H](O[C@@H]2O[C@H](C)[C@@H](O)[C@H](N)[C@@H]2O)C[C@@H]2O[C@](O)(C[C@@H](O)C[C@@H](O)[C@H](O)CC[C@@H](O)C[C@@H](O)CC(=O)O[C@H]1C)C[C@H](O)[C@H]2C(=O)O [AMPHOTERICIN B] |  |  |  |  |  |  |  |  |  |  |  |  |  |  |  |  |  |  |  |  | viability at 24 h, 128 ug/ml [18]: 30.5%
CC[C@@H]([C@H](C)O)n1ncn(-c2ccc(N3CCN(c4ccc(OC[C@@H]5CO[C@@](Cn6cncn6)(c6ccc(F)cc6F)C5)cc4)CC3)cc2)c1=O [POSACONAZOLE] | 2 µg/mL | 0.0313 µg/mL | 0.125 µg/mL | 0.25 µg/mL | 0.125 µg/mL | 0.125 µg/mL | 0.125 µg/mL | 0.5 µg/mL | 2 µg/mL | 1 µg/mL | 0.063 µg/mL | 1 µg/mL | 8 µg/mL | 0.125 µg/mL | 1 µg/mL | 1 µg/mL | 0.125 µg/mL |  |  |  | 
C[C@@H](OCc1ccn(Cc2ccc(Br)cc2)n1)[C@](O)(Cn1cncn1)c1ccc(F)cc1F |  |  |  |  |  |  |  |  |  |  |  |  |  |  |  |  |  | 8 µg/mL (≈ 15.4 µM) | ≤ 0.125 µg/mL | 0.25 µg/mL (≈ 0.482 µM) | Ratio [20]: 32; MIC [23]: 16 µg/mL (≈ 30.9 µM); MIC [24]: 32 µg/mL (≈ 61.7 µM); MIC [25]: ≤ 0.125 µg/mL; MIC [26]: 0.25 µg/mL (≈ 0.482 µM); MIC [27]: 16 µg/mL (≈ 30.9 µM); MIC [28]: 0.25 µg/mL (≈ 0.482 µM); MIC [29]: 2 µg/mL (≈ 3.86 µM); MIC [30]: 8 µg/mL (≈ 15.4 µM); MIC [31]: ≤ 0.125 µg/mL; Ratio [32]: 256
C[C@@H](OCc1ccn(Cc2ccc(Cl)cc2F)n1)[C@](O)(Cn1cncn1)c1ccc(F)cc1F |  |  |  |  |  |  |  |  |  |  |  |  |  |  |  |  |  | 32 µg/mL (≈ 65.1 µM) | 0.25 µg/mL (≈ 0.508 µM) | 0.5 µg/mL (≈ 1.02 µM) | MIC [23]: 8 µg/mL (≈ 16.3 µM); MIC [24]: 16 µg/mL (≈ 32.5 µM); MIC [25]: ≤ 0.125 µg/mL; MIC [26]: 0.25 µg/mL (≈ 0.508 µM); MIC [27]: 8 µg/mL (≈ 16.3 µM); MIC [28]: 0.5 µg/mL (≈ 1.02 µM); MIC [29]: 2 µg/mL (≈ 4.07 µM); MIC [30]: 16 µg/mL (≈ 32.5 µM); MIC [31]: 0.25 µg/mL (≈ 0.508 µM)
C[C@@H](c1nc(-c2ccc(C#N)cc2)cs1)[C@](O)(Cn1cncn1)c1ccc(F)cc1F [RAVUCONAZOLE] | 0.008 µg/mL | 0.008 µg/mL | 0.008 µg/mL | 0.008 µg/mL | 0.008 µg/mL | 2 µg/mL | 0.063 µg/mL | 0.008 µg/mL | 0.016 µg/mL | 0.008 µg/mL | 0.016 µg/mL | 0.008 µg/mL | 16 µg/mL | 0.016 µg/mL | 0.008 µg/mL | 0.008 µg/mL | 0.008 µg/mL | 1 µg/mL (≈ 2.29 µM) | ≤ 0.125 µg/mL | ≤ 0.125 µg/mL | MIC [23]: 1 µg/mL (≈ 2.29 µM); MIC [24]: 16 µg/mL (≈ 36.6 µM); MIC [25]: ≤ 0.125 µg/mL; MIC [26]: ≤ 0.125 µg/mL; MIC [27]: 16 µg/mL (≈ 36.6 µM); MIC [28]: 8 µg/mL (≈ 18.3 µM); MIC [29]: 1 µg/mL (≈ 2.29 µM); MIC [30]: 1 µg/mL (≈ 2.29 µM); MIC [31]: ≤ 0.125 µg/mL
C[C@@H](OCc1ccn(Cc2cc(F)ccc2F)n1)[C@](O)(Cn1cncn1)c1ccc(F)cc1F |  |  |  |  |  |  |  |  |  |  |  |  |  |  |  |  |  | 32 µg/mL (≈ 67.3 µM) | 0.25 µg/mL (≈ 0.526 µM) | 0.5 µg/mL (≈ 1.05 µM) | MIC [23]: 16 µg/mL (≈ 33.7 µM); MIC [24]: > 64 µg/mL; MIC [25]: ≤ 0.125 µg/mL; MIC [26]: 0.5 µg/mL (≈ 1.05 µM); MIC [27]: > 64 µg/mL; MIC [28]: 0.25 µg/mL (≈ 0.526 µM); MIC [29]: 4 µg/mL (≈ 8.41 µM); MIC [30]: 32 µg/mL (≈ 67.3 µM); MIC [31]: 0.25 µg/mL (≈ 0.526 µM)
CC(=O)N1CCN(c2ccc(OCC3COC(Cn4ccnc4)(c4ccc(Cl)cc4Cl)O3)cc2)CC1 (centres undefined) [KETOCONAZOLE] | 1 µg/mL | 8 µg/mL | 0.5 µg/mL | 0.5 µg/mL | 1 µg/mL | 8 µg/mL | 0.25 µg/mL | 0.25 µg/mL | 2 µg/mL | 1 µg/mL | 0.5 µg/mL | 2 µg/mL | 64 µg/mL | 0.25 µg/mL | 1 µg/mL | 1 µg/mL | 0.5 µg/mL |  |  |  | 
